The target in test [1] is Casein kinase I isoform gamma-1 (Homo sapiens) (UniProt Q9HCP0). The experiment in a line: Selectivity interaction (Kinase panel (Z-LYTE Assay)) EUB0001632a CSNK1G1. The note with it: at 10 µM.
For test [2], the target named is DNA-dependent protein kinase catalytic subunit (Homo sapiens) (UniProt P78527). The experiment in a line: Selectivity interaction (ActivX KiNativ screen (ex vivo kinase selectivity in human PBMCs)) EUB0001619a PRKDC. The format is cell-based. The following applies: PBMC, at 1 µM.
Test [3] deals with Cyclin-dependent kinase 16 (Homo sapiens) (UniProt Q00536). As to the kind of experiment: Selectivity interaction (ActivX KiNativ screen (ex vivo kinase selectivity in human PBMCs)) EUB0001619a CDK16. The note with it: PBMC, at 1 µM. The format is cell-based.
The target in test [4] is Casein kinase I isoform gamma-3 (Homo sapiens) (UniProt Q9Y6M4). The experiment in a line: Selectivity interaction (SelectScreen profiling (Invitrogen)) EUB0000607a CSNK1G3. The following applies: at 2 µM.
The target in test [5] is Tyrosine-protein kinase HCK (Homo sapiens) (UniProt P08631). As to the kind of experiment: Selectivity interaction (KinomeScan (DiscoverX)) EUB0000607a HCK. The following applies: at 10 µM.
Test [6] has as its target Non-receptor tyrosine-protein kinase TYK2 (Homo sapiens, UniProt P29597). The experiment in a line: Selectivity interaction (ActivX KiNativ screen (kinase selectivity in THP-1 cell lysates)) EUB0000639a TYK2. It counts as subcellular. The following applies: lysate, at 1 µM.
Test [7] has as its target T1, Serine/threonine-protein kinase 26 (Homo sapiens, UniProt Q9P289). As to the kind of experiment: Selectivity interaction (Ambit KINOMEscan and KiNATiv profiling in Jurkat cells) EUB0000090b STK26. It counts as cell-based. The note with it: at 1 µM.
Test [8] has as its system Mast/stem cell growth factor receptor Kit (Homo sapiens), P10721 [D816V]. As to the kind of experiment: (§1) Selectivity interaction (KinomeScan (DiscoverX)) EUB0000655a KIT. The following applies: at 10 µM.
The test system of test [9] is Mast/stem cell growth factor receptor Kit (Homo sapiens), P10721 [V559D,V654A]. Described as §1. The following applies: at 10 µM.
The test system of test [10] is Mast/stem cell growth factor receptor Kit (Homo sapiens), P10721 [D816H]. The test is described as §1. The following applies: at 10 µM.
The subject of test [11] is Mast/stem cell growth factor receptor Kit (Homo sapiens), P10721 [L576P]. The description is as §1. The following applies: at 10 µM.
For test [12], the target named is Mast/stem cell growth factor receptor Kit (Homo sapiens, UniProt P10721). Described as §1. The following applies: at 10 µM.
Test [13] has as its system Mast/stem cell growth factor receptor Kit (Homo sapiens), P10721 [V559D,T670I]. Described as §1. The note with it: at 10 µM.
Test [14] has as its system Mast/stem cell growth factor receptor Kit (Homo sapiens), P10721 [A829P]. Described as §1. The following applies: at 10 µM.
Test [15] concerns Mast/stem cell growth factor receptor Kit (Homo sapiens), P10721 [V559D]. Described as §1. The following applies: at 10 µM.
Test [16] concerns the target RAC-gamma serine/threonine-protein kinase (Homo sapiens, UniProt Q9Y243). As to the kind of experiment: Selectivity interaction (KinomeScan (DiscoverX)) EUB0000655a AKT3. The following applies: at 10 µM.
Test [17] deals with Glycogen synthase kinase-3 beta (Homo sapiens, UniProt P49841). As to the kind of experiment: Selectivity interaction (KinomeScan (DiscoverX)) EUB0000092b GSK3B. The following applies: at 10 µM.
Test [18] concerns the target T1, Serine/threonine-protein kinase 26. The experiment in a line: Selectivity interaction (KinomeScan (DiscoverX)) EUB0000092b STK26. The note with it: at 10 µM.
In test [19] the target is T2, Dual specificity mitogen-activated protein kinase kinase 7 (Homo sapiens) (UniProt O14733).
T2 sequence (whole entry): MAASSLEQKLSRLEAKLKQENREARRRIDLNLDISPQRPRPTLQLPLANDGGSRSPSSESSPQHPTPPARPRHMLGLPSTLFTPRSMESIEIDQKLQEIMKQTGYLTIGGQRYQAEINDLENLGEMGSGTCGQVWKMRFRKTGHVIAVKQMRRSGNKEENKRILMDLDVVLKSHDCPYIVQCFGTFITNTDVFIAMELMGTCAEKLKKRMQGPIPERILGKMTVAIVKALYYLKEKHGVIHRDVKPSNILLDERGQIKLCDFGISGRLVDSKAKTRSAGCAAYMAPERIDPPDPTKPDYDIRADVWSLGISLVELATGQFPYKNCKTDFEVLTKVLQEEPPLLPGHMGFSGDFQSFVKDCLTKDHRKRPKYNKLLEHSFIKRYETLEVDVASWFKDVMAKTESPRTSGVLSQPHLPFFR
As to the kind of experiment: Selectivity interaction (KinomeScan (DiscoverX)) EUB0000092b MAP2K7. The note with it: at 10 µM.

Test [20] concerns the target Histone-lysine N-methyltransferase SUV39H2 (Homo sapiens) (UniProt Q9H5I1). The experiment in a line: Selectivity interaction (Methyltransferase screen (radiometric assays, panel of 8 PRMTs, 21 protein lysine methyltransferases, 3 DNA methyltransferases, and one RNA methyltransferase)) EUB0000272b SUV39H2.
Test [21] addresses Ribosomal protein S6 kinase alpha-2 (Homo sapiens) (UniProt Q15349). As to the kind of experiment: Selectivity interaction (KinomeScan (DiscoverX)) EUB0001079a RPS6KA2. The following applies: at 1 µM.
Test [22] deals with T3, Alpha-1B adrenergic receptor (Homo sapiens) (UniProt P35368).
T3 sequence (whole entry): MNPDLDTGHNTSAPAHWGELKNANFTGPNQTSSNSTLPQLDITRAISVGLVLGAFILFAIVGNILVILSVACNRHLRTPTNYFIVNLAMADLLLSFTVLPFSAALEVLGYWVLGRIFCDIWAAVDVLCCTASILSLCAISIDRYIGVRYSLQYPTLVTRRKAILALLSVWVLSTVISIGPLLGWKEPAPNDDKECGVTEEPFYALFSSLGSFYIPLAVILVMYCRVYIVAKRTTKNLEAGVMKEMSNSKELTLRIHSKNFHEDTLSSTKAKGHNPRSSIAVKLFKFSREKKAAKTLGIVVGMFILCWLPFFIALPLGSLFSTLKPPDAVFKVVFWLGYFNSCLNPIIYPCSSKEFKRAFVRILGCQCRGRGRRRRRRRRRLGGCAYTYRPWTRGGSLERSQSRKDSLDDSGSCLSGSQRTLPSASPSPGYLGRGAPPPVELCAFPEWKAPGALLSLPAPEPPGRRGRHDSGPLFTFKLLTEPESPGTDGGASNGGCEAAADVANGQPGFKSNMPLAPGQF
As to the kind of experiment: Selectivity interaction (Panel of kinases, GPCRs, ion channels and transporters (enzymatic assay)) EUB0000266bCl ADRA1B.

In test [23] the target is Serine/threonine-protein kinase MRCK gamma (Homo sapiens) (UniProt Q6DT37). The experiment in a line: Selectivity interaction (KinomeScan (DiscoverX)) EUB0000229b CDC42BPG. The following applies: at 10 µM.

Sequence of Histone-lysine N-methyltransferase SUV39H2 (Homo sapiens) (Q9H5I1 whole entry): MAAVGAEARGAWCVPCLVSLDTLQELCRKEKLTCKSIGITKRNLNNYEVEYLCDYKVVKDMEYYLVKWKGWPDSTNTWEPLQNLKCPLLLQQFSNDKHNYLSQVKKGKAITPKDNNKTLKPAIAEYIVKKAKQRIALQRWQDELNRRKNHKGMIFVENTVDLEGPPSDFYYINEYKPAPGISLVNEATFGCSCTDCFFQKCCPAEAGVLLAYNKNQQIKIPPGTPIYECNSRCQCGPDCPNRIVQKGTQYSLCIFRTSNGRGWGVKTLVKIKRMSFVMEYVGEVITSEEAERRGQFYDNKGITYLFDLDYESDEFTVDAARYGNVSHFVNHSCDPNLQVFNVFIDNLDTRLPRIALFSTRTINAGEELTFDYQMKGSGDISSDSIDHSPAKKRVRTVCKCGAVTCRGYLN
T1 sequence (Q9P289 2-416 limits assumed): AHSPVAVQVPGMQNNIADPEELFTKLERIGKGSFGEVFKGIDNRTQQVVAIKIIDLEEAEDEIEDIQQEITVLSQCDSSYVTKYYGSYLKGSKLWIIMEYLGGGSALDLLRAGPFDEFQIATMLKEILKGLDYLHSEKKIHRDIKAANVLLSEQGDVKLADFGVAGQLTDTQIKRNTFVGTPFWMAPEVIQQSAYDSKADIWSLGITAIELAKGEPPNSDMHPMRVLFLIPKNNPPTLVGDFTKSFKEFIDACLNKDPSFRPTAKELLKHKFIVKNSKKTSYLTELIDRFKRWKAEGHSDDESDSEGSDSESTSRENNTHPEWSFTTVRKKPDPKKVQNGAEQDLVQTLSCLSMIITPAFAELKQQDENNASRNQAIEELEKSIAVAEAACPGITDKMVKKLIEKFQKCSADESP
Sequence of Tyrosine-protein kinase HCK (Homo sapiens) (P08631 2-526 limits assumed): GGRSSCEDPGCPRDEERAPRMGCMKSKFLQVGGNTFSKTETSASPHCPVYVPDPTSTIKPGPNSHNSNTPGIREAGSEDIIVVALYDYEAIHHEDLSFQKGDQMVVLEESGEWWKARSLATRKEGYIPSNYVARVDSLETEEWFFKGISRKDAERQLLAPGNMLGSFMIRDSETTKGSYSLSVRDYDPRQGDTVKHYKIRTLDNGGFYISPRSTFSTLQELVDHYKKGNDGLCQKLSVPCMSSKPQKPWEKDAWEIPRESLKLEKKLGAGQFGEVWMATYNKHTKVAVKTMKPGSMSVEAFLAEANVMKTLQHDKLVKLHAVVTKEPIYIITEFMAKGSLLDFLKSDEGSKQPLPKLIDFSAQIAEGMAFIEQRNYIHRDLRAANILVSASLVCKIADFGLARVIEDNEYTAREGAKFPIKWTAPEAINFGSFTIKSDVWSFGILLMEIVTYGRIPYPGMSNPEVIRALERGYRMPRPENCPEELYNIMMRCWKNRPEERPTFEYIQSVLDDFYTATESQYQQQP
Sequence of Mast/stem cell growth factor receptor Kit (Homo sapiens), P10721 [D816V] (P10721 whole entry D816V): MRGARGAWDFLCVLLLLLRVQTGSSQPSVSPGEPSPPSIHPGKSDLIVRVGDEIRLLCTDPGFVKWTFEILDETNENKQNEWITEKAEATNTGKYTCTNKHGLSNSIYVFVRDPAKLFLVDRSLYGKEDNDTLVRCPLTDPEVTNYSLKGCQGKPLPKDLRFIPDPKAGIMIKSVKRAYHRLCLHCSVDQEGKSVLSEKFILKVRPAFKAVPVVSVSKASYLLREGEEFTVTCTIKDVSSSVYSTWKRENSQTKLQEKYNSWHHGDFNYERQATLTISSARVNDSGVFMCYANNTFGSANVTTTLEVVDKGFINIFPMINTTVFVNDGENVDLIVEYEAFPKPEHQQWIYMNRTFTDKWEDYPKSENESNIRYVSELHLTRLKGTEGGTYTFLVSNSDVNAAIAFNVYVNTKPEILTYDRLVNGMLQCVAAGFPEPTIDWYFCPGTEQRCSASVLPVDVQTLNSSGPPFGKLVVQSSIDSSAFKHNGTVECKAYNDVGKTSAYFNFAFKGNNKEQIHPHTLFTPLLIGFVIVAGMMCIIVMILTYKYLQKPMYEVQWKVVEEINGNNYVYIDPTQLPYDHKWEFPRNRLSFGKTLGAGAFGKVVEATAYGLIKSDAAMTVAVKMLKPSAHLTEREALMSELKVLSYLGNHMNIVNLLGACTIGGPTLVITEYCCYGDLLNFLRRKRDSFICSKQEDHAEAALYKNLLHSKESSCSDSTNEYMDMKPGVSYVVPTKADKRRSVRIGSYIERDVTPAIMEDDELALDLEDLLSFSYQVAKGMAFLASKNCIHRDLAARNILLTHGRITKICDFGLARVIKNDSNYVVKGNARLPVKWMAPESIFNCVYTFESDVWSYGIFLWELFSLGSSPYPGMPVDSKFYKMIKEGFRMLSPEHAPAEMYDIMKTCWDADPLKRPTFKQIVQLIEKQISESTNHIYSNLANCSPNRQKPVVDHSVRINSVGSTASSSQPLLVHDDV
Sequence of Mast/stem cell growth factor receptor Kit (Homo sapiens), P10721 [V559D,T670I] (P10721 whole entry V559D/T670I): as the sequence (P10721 whole entry D816V) above, with V559D, T670I, V816D counted along it
Sequence of Mast/stem cell growth factor receptor Kit (Homo sapiens), P10721 [V559D] (P10721 whole entry V559D): as the sequence (P10721 whole entry D816V) above, with V559D, V816D counted along it
Sequence of Glycogen synthase kinase-3 beta (P49841 whole entry, looked up): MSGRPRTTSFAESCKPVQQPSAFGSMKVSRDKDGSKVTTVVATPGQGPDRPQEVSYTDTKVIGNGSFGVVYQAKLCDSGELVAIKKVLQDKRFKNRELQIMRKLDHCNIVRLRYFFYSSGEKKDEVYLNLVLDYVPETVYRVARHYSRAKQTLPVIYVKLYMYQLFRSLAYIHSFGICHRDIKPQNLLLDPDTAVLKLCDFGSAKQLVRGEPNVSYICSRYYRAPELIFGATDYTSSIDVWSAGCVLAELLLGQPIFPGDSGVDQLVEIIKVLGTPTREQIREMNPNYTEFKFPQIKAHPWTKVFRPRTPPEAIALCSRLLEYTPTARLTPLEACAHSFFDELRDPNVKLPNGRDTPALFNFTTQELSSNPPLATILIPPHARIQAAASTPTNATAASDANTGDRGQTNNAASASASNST

The compound `Cn1cc(-n2cnc3c(NCc4nc5cc(Cl)c(Cl)cc5[nH]4)nc(N4CCOCC4)nc32)cn1` gave a % of control in test [1] of 12.7%.

In the case of `N#Cc1cccc(-c2c[nH]c3ncnc(N4CCOCC4)c23)c1`, the results for the % of inhibition in test [2] and in test [3] were 15% and 25%, respectively.

With `CNC(=O)Nc1ccc(-c2nc(N3CC4CCC(C3)O4)c3cnn(C4CCC5(CC4)OCCO5)c3n2)cc1`, the % of inhibition in test [4] was -1%. Further, the % of control in test [5] was determined as 100%.

Turning to `CC[C@@H]1[C@H](F)C(=O)N[C@@H]1COc1nccc2cc(C(N)=O)c(OC)cc12` [ZIMLOVISERTIB], in [6], the % of inhibition is -8.7%.

`CN(C)C/C=C/C(=O)Nc1ccc(C(=O)N2CCCC(Nc3ncc(Cl)c(-c4c[nH]c5ccccc45)n3)C2)cc1` (centres undefined) showed a % of control in [7] of 88%.

With `CN(C)CCOc1ccc(-c2nc(-c3ccncc3)c(-c3ccc4c(c3)CC/C4=N\O)[nH]2)cc1`, the % of control in [8] worked out at 79%; in test [9], 93%; in [10], 100%; in test [11] it was 58%; in [12] it was 75%; in [13], 93%. Besides, the results for the % of control in [14], in [15] and in test [16] were 86%, 65% and 97%, respectively.

Regarding `CCC(=O)N1CCN(c2ccc(-n3c(=O)ccc4cnc5ccc(-c6cnc7ccccc7c6)cc5c43)cc2C(F)(F)F)CC1`, the % of control in [17] stood at 100%; in test [18] it was 89%; in [19], 100%.

For `Cc1cc(C)cc([C@H]2c3cc(C)ccc3NC(=O)CN2C(=O)c2ccc(Br)s2)c1`, the figures for the % of activity in test [20] (at 1 µM) and in [20] (at 10 µM) were 99.7% and 98%, respectively.

Turning to `Nc1cnc(N2CCc3cc(S(=O)(=O)Nc4c(F)cc(Cl)cc4F)cc(N4CCCC4=O)c32)nc1` [TP-020n], in test [21], the % of control turned out to be 88%.

In the case of `CCn1c(-c2nc3cc(C(=O)N4CCCC(N)C4)ccc3n2C)cc2ccccc21` (centres undefined), the pXC50 in test [22] worked out at 5.4 M.

In [23], `COc1cc(N(C)c2ccnc3ccc(C(F)(F)F)cc23)cc(OC)c1OC` yielded a % binding of 94%.

For the origin of these results see ChEMBL document CHEMBL5465560, “Selectivity Literature for EUbOPEN Chemogenomic Library” (2024).
